From US12715844B2, “Compound, preparation method therefor, composition, kit and use thereof” (SIGNDO BIOTECHNOLOGY (SUZHOU) CO., LTD, priority 2023, dated 2026)

Tests used:
[1] = Acute toxicity experiment on rats; settings: three dose groups of high, medium and low doses
PSMA receptor = target: T1, PSMA receptor (Homo sapiens, UniProt Q04609); assay: Receptor binding detected by flow cytometry in vitro (competitive binding with DUPA-FITC); settings: 22RV1 (PSMA+) cells, competition with 100 nmol/L DUPA-FITC
T1 construct: endogenous in cells; host or cells: 22RV1 (PSMA+); PC3 (PSMA−) as negative control
T1 sequence (Q04609 whole entry): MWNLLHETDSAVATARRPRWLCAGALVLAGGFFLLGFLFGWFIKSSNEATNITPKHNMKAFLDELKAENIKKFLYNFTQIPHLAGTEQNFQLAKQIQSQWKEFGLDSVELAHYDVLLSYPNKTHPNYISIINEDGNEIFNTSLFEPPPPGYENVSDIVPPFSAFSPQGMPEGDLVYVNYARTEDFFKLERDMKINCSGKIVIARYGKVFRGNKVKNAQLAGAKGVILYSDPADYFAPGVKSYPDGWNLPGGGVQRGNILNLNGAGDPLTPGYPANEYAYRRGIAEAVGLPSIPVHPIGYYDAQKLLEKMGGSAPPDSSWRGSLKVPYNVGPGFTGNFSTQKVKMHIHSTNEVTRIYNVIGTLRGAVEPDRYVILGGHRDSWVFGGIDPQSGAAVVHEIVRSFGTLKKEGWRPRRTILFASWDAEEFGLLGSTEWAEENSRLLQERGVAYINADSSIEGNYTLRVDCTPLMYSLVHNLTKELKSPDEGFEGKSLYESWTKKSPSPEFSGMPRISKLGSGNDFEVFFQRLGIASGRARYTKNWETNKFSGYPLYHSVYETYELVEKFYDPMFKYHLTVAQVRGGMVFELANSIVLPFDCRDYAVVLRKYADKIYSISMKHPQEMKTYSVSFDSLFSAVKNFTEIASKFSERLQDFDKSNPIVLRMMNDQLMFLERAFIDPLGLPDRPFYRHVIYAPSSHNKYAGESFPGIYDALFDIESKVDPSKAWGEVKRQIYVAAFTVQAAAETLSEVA
Excerpt: 1. Receptor Binding was Detected by Flow Cytometry In Vitro:
Prostate-specific membrane antigen (PSMA) is overexpressed on prostate cancer cells. Both DUPA-FITC and DGPR1008 are capable of targeting the PSMA receptor in prostate cancer cells, with the difference being that DUPA-FITC is connected to a visible light dye (Ex=495 nm, Em=520 nm), whereas DGPR1008 is connected to a near-infrared dye (Ex=776 nm, Em=793 nm). Since the majority types of lasers equipped in flow cytometers operate within the visible light spectrum, the binding affinity of DGPR1008 to the receptor can not be directly measured. Therefore, the competitive binding of DGPR1008 with DUPA-FITC to PSMA is employed to indirectly assess the binding affinity of the test compound to the receptor.
DGPR1008, DUPA-FITC, 22RV1 (PSMA+), PC3 (PSMA−), 1640 culture medium, FBS, double antibiotics, trypsin, centrifuge, 4° C. constant temperature incubator, flow cytometer.
Drug preparation: 100 nmol/L DUPA-FITC was prepared using culture medium. The test compound was diluted to nine concentrations (0.00098 μM, 0.002 μM, 0.008 μM, 0.01 μM, 0.03 μM, 0.05 μM, 0.09 μM, 0.1 μM, and 0.125 μM) using culture medium containing 100 nmol/L DUPA-FITC, with three replicate wells for each concentration.
Cell culture: The cells were seeded in T75 culture flasks. After 48 h, cells in the logarithmic growth phase were taken, digested with trypsin for 1-2 min, and the digestion was then terminated by adding fresh culture medium. After cell counting, the cells were transferred into a 96-well plate (1×10^5 cells/well), totaling 27 wells. The culture medium was discarded by centrifugation (800 rpm, 5 min), and the cells were washed twice with PBS and then centrifuged to collect the cell pellet. The prepared culture media with 9 concentrations were added to the cell-containing wells, with three replicates for each concentration. The cells were incubated at 4° C. in the dark for 30 min, and then the culture medium in the wells was discarded. Cells were washed by adding 300 μL of fresh culture medium (twice) and saline (once) to each well, followed by resuspension in 300 μL of saline for flow cytometry detection.

22RV1 (PSMA+) [2] = assay: In vivo live imaging comparison with the existing product OTL78; parameters: species or system mice
Excerpt: (§1) “V” denotes the volume-to-mass ratio. […] Mice refer to BALB/c nude mice, 6-8 weeks old, weighing 18-20 g; rats refer to SD rats: 8 weeks old, approximately 250 g.
3. Comparison with the Existing Product OTL78
(§2) The Prostate-specific membrane antigen (PSMA) is overexpressed on prostate cancer cells. The test compound is a PSMA-targeting molecule conjugated with a near-infrared region I dye. The test compound can bind to PSMA and “illuminate” cancer cells upon excitation by a near-infrared light source. In this experiment, the in vivo and ex vivo tissue distribution of the test compound in mice is detected using in vivo live imaging.
DGPR1008, 22RV1 (PSMA+), BALB/c nude mouse, 1640 culture medium, FBS, double antibodies, trypsin, Matrigel (BD), vernier caliper, centrifuge, IVIS live imager.
(§3) Matrigel was thawed on ice in advance, and the culture medium was pre-cooled on ice. After centrifugation, the cells were resuspended in the pre-cooled culture medium, followed by the addition of HC Matrigel gel in a volume equal to the culture medium. The centrifuge tube containing the cells was placed on ice and transferred to the animal facility. The cells were thoroughly dispersed before inoculation. The back of the neck was disinfected with an alcohol cotton ball, and a single intravenous administration was performed with an inoculation volume of 200 μL per mouse. All operations were performed on ice. When the tumor volume reached 300-400 mm^3, the mice were grouped for administration. Six mice with well-grown and regularly shaped tumors were selected into the group. The six mice were randomly divided into two groups: G1 (OTL78 10 nmol/mouse) and G2 (DGPR1008 10 nmol/mouse) with three mice in each group. The scanning time: 1, 2, 4, 8, 24, and 72 h.
(1) Results and Data of In Vivo Live Imaging of Drug Efficacy (Mice were Used as Experimental Subjects in this Part)

22RV1 (PSMA+) [3] = assay: 2-hour ex vivo tissue distribution: fluorescence of tumor and in situ normal prostate; parameters: species or system mice; settings: relative to OTL78
Excerpt: as §2, §3
(2) Results of 2-Hour Ex Vivo Tissue Distribution: Fluorescence Ratio of Tumor to In Situ Normal Prostate: […]

22RV1 (PSMA+) [4] = assay: Drug efficacy validation by in vivo live imaging, three dose groups; parameters: species or system mice
Excerpt: as §1
2. Drug Efficacy Validation Experiment Using In Vivo Live Imaging
Prostate-specific membrane antigen (PSMA) is overexpressed on prostate cancer cells. The test compound is a PSMA-targeting molecule conjugated with a near-infrared region I dye. The test compound can bind to PSMA and “illuminate” cancer cells upon excitation by a near-infrared light source. In this experiment, the in vivo tissue distribution of the test compound in mice is detected using in vivo live imaging.
DGPR1008, 22RV1 (PSMA+), PC3 (PSMA−), 1640 culture medium, FBS, double antibodies, trypsin, Matrigel (BD), vernier caliper, centrifuge, IVIS live imager.
Matrigel was thawed on ice in advance, and the culture medium was pre-cooled on ice. After centrifugation, the cells were resuspended in the pre-cooled culture medium, followed by the addition of HC Matrigel gel in a volume equal to the culture medium. The centrifuge tube containing the cells was placed on ice and transferred to the animal facility. The cells were thoroughly dispersed before inoculation. The right dorsal shoulder area of the mice was disinfected with an alcohol cotton ball, and a single intravenous administration was performed with an inoculation volume of 200 μL per mouse. All operations were performed on ice. When the tumor volume reached 300-400 mm^3, the mice were grouped for administration. Nine mice with well-grown and regularly shaped tumors were selected into the group. The nine mice were randomly divided into three groups: G1 (25 nmol/mouse), G2 (50 nmol/mouse), and G3 (100 nmol/mouse), with three mice in each group. The scanning time: 1, 2, 4, 8, 24, and 48 h.

[5] = Pharmacokinetic parameters in rat plasma; assay type: in vivo; settings: compared with OTL78

CC1(C)C(=CC=C2CCCC(C=CC3=[N+](CCCCS(=O)(=O)[O-])c4ccc(S(=O)(=O)[O-])cc4C3(C)C)=C2Oc2ccc(CC(NC(=O)CCOCCCOCCCCCOCCOCCNC(=O)CCC(NC(=O)NC(CCC(=O)[O-])C(=O)[O-])C(=O)[O-])C(=O)[O-])cc2)N(CCCCS(=O)(=O)[O-])c2ccc(S(=O)(=O)[O-])cc21.[Na+].[Na+].[Na+].[Na+].[Na+].[Na+].[Na+] (stereo not drawn) [Example 51]
toxic reactions in acute toxicity experiment [1]: no toxic reactions were observed | binding affinity to PSMA receptor (PSMA receptor): good affinity | TBR (tumor-to-background ratio), in words (22RV1 (PSMA+) [2]; from about 2 h to 72 h): good TBR | fluorescence value at the tumor site compared with OTL78 (22RV1 (PSMA+) [2]; mice, each time point): greater fluorescence values at the tumor site than OTL78 | TBR compared with OTL78 (22RV1 (PSMA+) [2]; relative to OTL78): higher TBR | discrimination capability (tumor vs normal prostate) compared with OTL78 (22RV1 (PSMA+) [3]): approximately 5 fold | targeting properties (22RV1 (PSMA+) [4]; 22RV1 tumor mice, in vivo live imaging): good targeting properties | enrichment in the prostate cancer tumor site (22RV1 (PSMA+) [4]; high, medium and low doses (25, 50, 100 nmol/mouse), scans 1-48 h): enriched in the prostate cancer tumor site | clearance in rats in vivo, in words [5]: cleared more rapidly
